Measured values as given in patent US9284306B2, “(R)-Nifuratel, its use for the treatment of infections and synthesis of (R) and (S)-Nifuratel” (POLICHEM SA, priority 2012, dated 2016).
≈ marks a conversion by molar mass, not a printed value. Read-outs that look alike come from different tables or passages of the source.

How the values were obtained:
[1] = test system: Staphylococcus aureus (MRSA); assay: MIC, broth microdilution; type: cell-based
Procedure: (§1) Strains were prepared from freeze-dried pellets. An isolation of the suspensions (to test the strains purity) and a strains massive growth were made by streaking microbial suspensions on agar media. The bacterial colonies on agar plates were collected with 3-5 mL of specific liquid medium+15% glycerol and then the aliquots were frozen at −80° C.
(§2) Compounds Minimal Inhibitory Concentration (MIC) was determined through broth micro-dilution susceptibility testing with a method developed following the National Committee for Clinical Laboratory Standards (CLSI) M07-A8 and M11-A7 references. Assays were carried out in specific media (Table 3). The tests were performed either following the broth microdilution assay or the agar dilution assay. Compounds stock solutions were made at 12.8 mg/mL in DMSO 100%. A series of twofold dilutions were then prepared using the strain specific broth. Final concentrations were from 0.125 μg/mL to 64 μg/mL at 1% DMSO. MIC is defined as the lowest concentration of antibacterial agent which prevent any visible growth.

[2] = rat, in vivo
Procedure: The pharmacokinetic profile of S- and R-nifuratel was assessed after intravenous administration (2 mg/kg) and oral gavage (15 mg/kg) in male rats.

[3] = test system: Gram positive and negative organisms; assay: Antimicrobial activity (MIC), overall comparison; type: cell-based; settings: Tables 3 and 4, overall
Source text: (§3) Micrococcus pyogenes (ATCC 11631), Bacillus subtilis (ATCC 11774), Lactobacillus iners (ATCC 55195), Escherichia coli (ATCC 11775), Proteus mirabilis (ATCC 14153), Klebsiella pneumoniae (ATCC 10031), Shigella sonnei (ATCC 11060), Neisseria gonorrhoeae (ATCC 19424), Salmonella typhimurium (ATCC 14028) Salmonella paratyphi B (ATCC 10719), Helicobacter pylori (ATCC 43504) and several strains of Atopobium vaginae and Gardnerella vaginalis.
as §2

[4] = test system: Gardnerella vaginalis; assay: MIC, agar dilution; type: cell-based
Procedure: as §3, §1, §2

[5] = test system: Atopobium vaginae; assay: MIC, agar dilution; type: cell-based; settings: Fannyhessea vaginae
Procedure: as §3, §1, §2

[6] = in vivo; settings: male, rat, iv, 2 mg/kg
[7] = test system: Escherichia coli ATCC 11775; assay: MIC, broth microdilution; type: cell-based; settings: ATCC11775; broth microdilution; Escherichia coli ATCC 11775; read-out: MIC
Procedure: as §3, §1, §2

[8] = test system: Micrococcus pyogenes ATCC 11631; assay: MIC, broth microdilution; type: cell-based; settings: Staphylococcus aureus, ATCC11631; broth microdilution; Micrococcus pyogenes ATCC 11631; read-out: MIC
Procedure: as §3, §1, §2

[9] = test system: Bacillus subtilis; assay: MIC, broth microdilution; type: cell-based; settings: broth microdilution, read-out: MIC
Procedure: as §3, §1, §2

[10] = test system: Salmonella typhimurium ATCC 14028; assay: MIC, broth microdilution; type: cell-based; settings: Salmonella enterica; broth microdilution; Salmonella typhimurium ATCC 14028; read-out: MIC
Procedure: as §3, §1, §2

[11] = test system: Klebsiella pneumonia ATCC 10031; assay: MIC, broth microdilution; type: cell-based; settings: Klebsiella pneumoniae, ATCC10031; broth microdilution; Klebsiella pneumonia ATCC 10031; read-out: MIC
Procedure: as §3, §1, §2

[12] = test system: Neisseria gonorrhoeae ATCC 19424; assay: MIC, broth microdilution; type: cell-based; settings: ATCC19424; broth microdilution; Neisseria gonorrhoeae ATCC 19424; read-out: MIC
Procedure: as §3, §1, §2

[13] = test system: Proteus mirabilis ATCC 14153; assay: MIC, broth microdilution; type: cell-based; settings: ATCC14153; broth microdilution; Proteus mirabilis ATCC 14153; read-out: MIC
Procedure: as §3, §1, §2

[14] = test system: Lactobacillus iners ATCC 55195; assay: MIC, broth microdilution; type: cell-based; settings: ATCC55195; broth microdilution; Lactobacillus iners ATCC 55195; read-out: MIC
Procedure: as §3, §1, §2

[15] = test system: Salmonella paratyphi B ATCC 10719; assay: MIC, broth microdilution; type: cell-based; settings: Salmonella enterica
Procedure: as §3, §1, §2

[16] = test system: Shigella sonnei ATCC 11060; assay: MIC, broth microdilution; type: cell-based; settings: ATCC11060
Procedure: as §3, §1, §2

[17] = test system: Helicobacter pylori ATCC 43504; assay: MIC, broth microdilution; type: cell-based; settings: ATCC43504
Procedure: as §3, §1, §2

[18] = in vivo; settings: male, rat, po, 15 mg/kg
[19] = ATCC14018, agar dilution, Gardnerella vaginalis ATCC 14018, read-out: MIC
[20] = agar dilution, Gardnerella vaginalis C2, read-out: MIC
[21] = agar dilution, Gardnerella vaginalis D2, read-out: MIC
[22] = agar dilution, Gardnerella vaginalis E2, read-out: MIC
[23] = agar dilution, Gardnerella vaginalis G2, read-out: MIC
[24] = agar dilution, Gardnerella vaginalis H2, read-out: MIC
[25] = agar dilution, Gardnerella vaginalis J2, read-out: MIC
[26] = agar dilution, Gardnerella vaginalis K2, read-out: MIC
[27] = CCUG38953, agar dilution, Atopobium vaginae CCUG 38953, read-out: MIC
[28] = CCUG42099, agar dilution, Atopobium vaginae CCUG 42099, read-out: MIC
[29] = CCUG43049, agar dilution, Atopobium vaginae CCUG 43049, read-out: MIC
[30] = CCUG44156, agar dilution, Atopobium vaginae CCUG 44156, read-out: MIC
[31] = CCUG48515, agar dilution, Atopobium vaginae CCUG 48515, read-out: MIC
[32] = CCUG55226, agar dilution, Atopobium vaginae CCUG 55226, read-out: MIC
[33] = CCUG55227, agar dilution, Atopobium vaginae CCUG 55227, read-out: MIC

SMILES: CSC[C@H]1CN(/N=C/c2ccc([N+](=O)[O-])o2)C(=O)O1 [R-nifuratel, (R)-Nifuratel]
- MIC [1]: 2 µg/mL (≈ 7.01 µM)
- overall pharmacokinetic profile [2]: best pharmacokinetic profile
- antimicrobial profile compared to nifuratel racemate or (S)-nifuratel [3]: better antimicrobial profile
- MIC [4, 19]: 1 µg/mL (≈ 3.51 µM)
- MIC [4, 20]: 4 µg/mL (≈ 14 µM)
- MIC [4, 21]: 4 µg/mL (≈ 14 µM)
- MIC [4, 22]: 1 µg/mL (≈ 3.51 µM)
- MIC [4, 23]: 2 µg/mL (≈ 7.01 µM)
- MIC [4, 24]: 1 µg/mL (≈ 3.51 µM)
- MIC [4, 25]: 2 µg/mL (≈ 7.01 µM)
- MIC [4, 26]: 4 µg/mL (≈ 14 µM)
- MIC [5, 27]: 0.25 µg/mL (≈ 0.876 µM)
- MIC ([5]; CCUG39382): 0.125 µg/mL (≈ 0.438 µM)
- MIC [5, 28]: 0.25 µg/mL (≈ 0.876 µM)
- MIC [5, 29]: 0.25 µg/mL (≈ 0.876 µM)
- MIC ([5]; CCUG44061, agar dilution, Atopobium vaginae CCUG 44061, read-out: MIC): 0.25 µg/mL (≈ 0.876 µM)
- MIC [5, 30]: 0.25 µg/mL (≈ 0.876 µM)
- MIC [5, 31]: 0.5 µg/mL (≈ 1.75 µM)
- MIC [5, 32]: 1 µg/mL (≈ 3.51 µM)
- MIC [5, 33]: 0.25 µg/mL (≈ 0.876 µM)
- AUC(0-inf) [6]: 750 ng·h/mL
- AUC(0-t) [6]: 740 ng·h/mL
- Clast [6]: 43 ng/mL
- Cmax [6]: 4190 ng/mL
- MRT [6]: 7 min
- Tlast [6]: 75 min
- Tmax [6]: 2 min
- VSR [6]: 0.4 L/kg
- clearance [6]: 49 mL/min/kg
- half-life [6]: 11 min
- MIC [7]: 1 µg/mL (≈ 3.51 µM)
- MIC [8]: 2 µg/mL (≈ 7.01 µM)
- MIC [9]: 0.25 µg/mL (≈ 0.876 µM)
- MIC [10]: 2 µg/mL (≈ 7.01 µM)
- MIC [11]: 2 µg/mL (≈ 7.01 µM)
- MIC [12]: 0.25 µg/mL (≈ 0.876 µM)
- MIC [13]: 8 µg/mL (≈ 28 µM)
- MIC [14]: 16 µg/mL (≈ 56.1 µM)
- MIC [15]: 1 µg/mL (≈ 3.51 µM)
- MIC [16]: 1 µg/mL (≈ 3.51 µM)
- MIC ([17]; Helicobacter pylori): 0.125 µg/mL (≈ 0.438 µM)
- AUC(0-t) [18]: 66.8 ng·h/mL
- Clast [18]: 3 ng/mL
- Cmax [18]: 34 ng/mL
- MRT [18]: 82.4 h
- Tlast [18]: 480 min
- Tmax [18]: 5 min
- half-life [18]: 236 min

SMILES: CSC[C@@H]1CN(/N=C/c2ccc([N+](=O)[O-])o2)C(=O)O1 [S-Nifuratel, (S)-Nifuratel]
- MIC [1]: 4 µg/mL (≈ 14 µM)
- MIC [4, 19]: 2 µg/mL (≈ 7.01 µM)
- MIC [4, 20]: 8 µg/mL (≈ 28 µM)
- MIC [4, 21]: 2 µg/mL (≈ 7.01 µM)
- MIC [4, 22]: 2 µg/mL (≈ 7.01 µM)
- MIC [4, 23]: 1 µg/mL (≈ 3.51 µM)
- MIC [4, 24]: 2 µg/mL (≈ 7.01 µM)
- MIC [4, 25]: 4 µg/mL (≈ 14 µM)
- MIC [4, 26]: 4 µg/mL (≈ 14 µM)
- MIC [5, 27]: 0.25 µg/mL (≈ 0.876 µM)
- MIC ([5]; CCUG39382, agar dilution, Atopobium vaginae CCUG 39382, read-out: MIC): 0.25 µg/mL (≈ 0.876 µM)
- MIC [5, 28]: 0.5 µg/mL (≈ 1.75 µM)
- MIC [5, 29]: 0.5 µg/mL (≈ 1.75 µM)
- MIC ([5]; CCUG44061): 0.125 µg/mL (≈ 0.438 µM)
- MIC [5, 30]: 0.25 µg/mL (≈ 0.876 µM)
- MIC [5, 31]: 1 µg/mL (≈ 3.51 µM)
- MIC [5, 32]: 1 µg/mL (≈ 3.51 µM)
- MIC [5, 33]: 0.5 µg/mL (≈ 1.75 µM)
- AUC(0-inf) [6]: 167 ng·h/mL
- AUC(0-t) [6]: 166 ng·h/mL
- Clast [6]: 5 ng/mL
- Cmax [6]: 1150 ng/mL
- MRT [6]: 4 min
- Tlast [6]: 53 min
- Tmax [6]: 2 min
- VSR [6]: 0.9 L/kg
- clearance [6]: 203 mL/min/kg
- half-life [6]: 8 min
- MIC [7]: 2 µg/mL (≈ 7.01 µM)
- MIC [8]: 1 µg/mL (≈ 3.51 µM)
- MIC [9]: 1 µg/mL (≈ 3.51 µM)
- MIC [10]: 8 µg/mL (≈ 28 µM)
- MIC [11]: 4 µg/mL (≈ 14 µM)
- MIC [12]: 0.5 µg/mL (≈ 1.75 µM)
- MIC [13]: 8 µg/mL (≈ 28 µM)
- MIC [14]: 32 µg/mL (≈ 112 µM)
- MIC [15]: 4 µg/mL (≈ 14 µM)
- MIC [16]: 4 µg/mL (≈ 14 µM)
- MIC ([17]; broth microdilution, Helicobacter pylori ATCC 43504, read-out: MIC): 0.25 µg/mL (≈ 0.876 µM)
- AUC(0-t) [18]: 32.6 ng·h/mL
- Clast [18]: 3 ng/mL
- Cmax [18]: 6 ng/mL
- Tlast [18]: 480 min
- Tmax [18]: 5 min
